“And” between values parts separate entries of the source, which are not always exact repeats. Equal values may be shown once.
Key:
[1] = molecular target: LgGUS (Lactobacillus gasseri GUS) (Lactobacillus gasseri, UniProt Q9AHJ8); assay: GUS inhibition assay, hydrolysis of 4-methylumbelliferyl-β-glucuronide, LgGUS; type: biochemical; design: GUS activity (hydrolysis rate of MUG) / 1/v: unit not given here
[2] = molecular target: BdGUS (Bifidobacterium dentium GUS) (Bifidobacterium dentium, UniProt D2Q7B1); assay: biochemical; design: GUS activity (hydrolysis rate of MUG) / 1/v: unit not given here
[3] = [Inhibitor 4] = 0.1 μM, [MUG] 0.15 mM
[4] = [Inhibitor 4] = 0.2 μM, [MUG] 0.0375 mM
[5] = [Inhibitor 4] = 0.2 μM, [MUG] 0.05 mM
[6] = [Inhibitor 4] = 0.2 μM, [MUG] 0.075 mM
[7] = [Inhibitor 4] = 0.2 μM, [MUG] 0.15 mM
[8] = [Inhibitor 4] = 0.4 μM, [MUG] 0.0375 mM
[9] = [Inhibitor 4] = 0.4 μM, [MUG] 0.05 mM
[10] = [Inhibitor 4] = 0.4 μM, [MUG] 0.075 mM
[11] = [Inhibitor 4] = 0.4 μM, [MUG] 0.15 mM
[12] = [Inhibitor 4] = 0.6 μM, [MUG] 0.0375 mM
[13] = [Inhibitor 4] = 0.6 μM, [MUG] 0.05 mM
[14] = [Inhibitor 4] = 0.6 μM, [MUG] 0.075 mM
[15] = [Inhibitor 4] = 0.6 μM, [MUG] 0.15 mM
[16] = [Inhibitor 4] = 0.05 μM, [MUG] 0.08 mM
[17] = [Inhibitor 4] = 0.05 μM, [MUG] 0.125 mM
[18] = [Inhibitor 4] = 0.05 μM, [MUG] 0.25 mM
[19] = [Inhibitor 4] = 0.05 μM, [MUG] 0.5 mM
[20] = [Inhibitor 4] = 0.15 μM, [MUG] 0.08 mM
[21] = [Inhibitor 4] = 0.15 μM, [MUG] 0.125 mM
[22] = [Inhibitor 4] = 0.15 μM, [MUG] 0.25 mM
[23] = [Inhibitor 4] = 0.15 μM, [MUG] 0.5 mM
[24] = [Inhibitor 4] = 0.3 μM, [MUG] 0.08 mM
[25] = [Inhibitor 4] = 0.3 μM, [MUG] 0.125 mM
[26] = [Inhibitor 4] = 0.3 μM, [MUG] 0.25 mM
[27] = [Inhibitor 4] = 0.3 μM, [MUG] 0.5 mM
[28] = [Inhibitor 4] = 0.6 μM, [MUG] 0.08 mM
[29] = [Inhibitor 4] = 0.6 μM, [MUG] 0.125 mM
[30] = [Inhibitor 4] = 0.6 μM, [MUG] 0.25 mM
[31] = [Inhibitor 4] = 0.6 μM, [MUG] 0.5 mM

Chain of LgGUS (Lactobacillus gasseri GUS) (Q9AHJ8 1-598): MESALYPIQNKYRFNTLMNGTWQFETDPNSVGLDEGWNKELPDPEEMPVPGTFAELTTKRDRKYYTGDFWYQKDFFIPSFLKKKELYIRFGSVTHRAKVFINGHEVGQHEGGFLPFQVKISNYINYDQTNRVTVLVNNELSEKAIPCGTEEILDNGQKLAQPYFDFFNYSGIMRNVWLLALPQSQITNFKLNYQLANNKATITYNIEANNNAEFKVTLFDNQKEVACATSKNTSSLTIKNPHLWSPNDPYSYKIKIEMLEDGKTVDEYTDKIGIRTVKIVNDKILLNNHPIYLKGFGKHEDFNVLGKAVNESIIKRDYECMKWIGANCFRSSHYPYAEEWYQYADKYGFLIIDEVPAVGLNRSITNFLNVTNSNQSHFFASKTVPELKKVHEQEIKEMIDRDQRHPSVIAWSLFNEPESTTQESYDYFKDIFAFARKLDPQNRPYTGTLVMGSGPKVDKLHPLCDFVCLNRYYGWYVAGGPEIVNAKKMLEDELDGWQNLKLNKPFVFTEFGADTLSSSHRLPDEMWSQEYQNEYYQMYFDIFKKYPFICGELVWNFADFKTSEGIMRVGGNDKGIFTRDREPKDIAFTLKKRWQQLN
Chain of BdGUS (Bifidobacterium dentium GUS) (D2Q7B1 1-668): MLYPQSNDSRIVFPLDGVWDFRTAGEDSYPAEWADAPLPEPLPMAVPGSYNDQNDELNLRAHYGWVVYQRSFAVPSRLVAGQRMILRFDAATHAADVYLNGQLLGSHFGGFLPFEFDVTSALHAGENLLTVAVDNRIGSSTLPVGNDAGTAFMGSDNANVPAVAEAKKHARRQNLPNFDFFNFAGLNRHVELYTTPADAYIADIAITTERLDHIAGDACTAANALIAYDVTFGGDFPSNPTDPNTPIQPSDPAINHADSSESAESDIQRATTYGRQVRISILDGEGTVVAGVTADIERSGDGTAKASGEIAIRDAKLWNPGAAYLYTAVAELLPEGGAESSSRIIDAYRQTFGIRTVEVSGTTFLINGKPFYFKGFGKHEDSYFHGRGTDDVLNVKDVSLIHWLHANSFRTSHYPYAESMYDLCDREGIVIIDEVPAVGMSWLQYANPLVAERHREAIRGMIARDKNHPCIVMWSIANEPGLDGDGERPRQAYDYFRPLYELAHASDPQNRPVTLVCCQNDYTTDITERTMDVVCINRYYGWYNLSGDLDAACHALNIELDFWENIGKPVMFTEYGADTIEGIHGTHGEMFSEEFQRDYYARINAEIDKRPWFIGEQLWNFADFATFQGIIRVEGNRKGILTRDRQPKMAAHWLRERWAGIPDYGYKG

## CCCCCCCCC[C@@H]1NC[C@@H](O)[C@H](O)[C@H]1C(=O)O [Inhibitor 4, C6-nonyl UIFG]
[1]; [3]
  1/v: 0.1278 and 0.1207 and 0.1294
  GUS activity (hydrolysis rate of MUG): 9649 and 10216 and 9535
[1]; [4]
  1/v: 0.05896 and 0.0562 and 0.06114
  GUS activity (hydrolysis rate of MUG): 20877 and 21902 and 20134
[1]; [5]
  1/v: 0.07315 and 0.0639 and 0.07306
  GUS activity (hydrolysis rate of MUG): 16834 and 19266 and 16856
[1]; [6]
  1/v: 0.08853 and 0.08384 and 0.0916
  GUS activity (hydrolysis rate of MUG): 13918 and 14693 and 13452
[1]; [7]
  1/v: 0.113 and 0.1097 and 0.1193
  GUS activity (hydrolysis rate of MUG): 10909 and 11240 and 10335
[1]; [8]
  1/v: 0.04482 and 0.03964 and 0.04854
  GUS activity (hydrolysis rate of MUG): 27452 and 31030 and 25348
[1]; [9]
  1/v: 0.06247 and 0.0466 and 0.0623
  GUS activity (hydrolysis rate of MUG): 19707 and 26401 and 19760
[1]; [10]
  1/v: 0.07433 and 0.06177 and 0.07489
  GUS activity (hydrolysis rate of MUG): 16569 and 19929 and 16445
[1]; [11]
  1/v: 0.09796 and 0.08796 and 0.1041
  GUS activity (hydrolysis rate of MUG): 12581 and 14006 and 11837
[1]; [12]
  1/v: 0.03481 and 0.03381 and 0.03972
  GUS activity (hydrolysis rate of MUG): 35328 and 36376 and 30969
[1]; [13]
  1/v: 0.04379 and 0.03975 and 0.04826
  GUS activity (hydrolysis rate of MUG): 28094 and 30946 and 25494
[1]; [14]
  1/v: 0.05918 and 0.05295 and 0.06497
  GUS activity (hydrolysis rate of MUG): 20799 and 23242 and 18949
[1]; [15]
  1/v: 0.08688 and 0.08016 and 0.09205
  GUS activity (hydrolysis rate of MUG): 14180 and 15366 and 13387
[2]; BdGUS
  Ki: 440 nM
[2]; [16]
  1/v: 0.1206 and 0.1178 and 0.1199
  GUS activity (hydrolysis rate of MUG): 1.851 and 1.896 and 1.862
[2]; [17]
  1/v: 0.09548 and 0.09298 and 0.09392
  GUS activity (hydrolysis rate of MUG): 2.339 and 2.4016 and 2.377
[2]; [18]
  1/v: 0.06502 and 0.06335 and 0.06665
  GUS activity (hydrolysis rate of MUG): 3.434 and 3.525 and 3.35
[2]; [19]
  1/v: 0.04786 and 0.04662 and 0.0491
  GUS activity (hydrolysis rate of MUG): 4.665 and 4.79 and 4.548
[2]; [20]
  1/v: 0.1451 and 0.1465 and 0.1466
  GUS activity (hydrolysis rate of MUG): 1.539 and 1.524 and 1.523
[2]; [21]
  1/v: 0.1144 and 0.1135 and 0.113
  GUS activity (hydrolysis rate of MUG): 1.951 and 1.968 and 1.976
[2]; [22]
  1/v: 0.07405 and 0.07448 and 0.0755
  GUS activity (hydrolysis rate of MUG): 3.015 and 2.998 and 2.957
[2]; [23]
  1/v: 0.05196 and 0.05207 and 0.05497
  GUS activity (hydrolysis rate of MUG): 4.298 and 4.288 and 4.062
[2]; [24]
  1/v: 0.2039 and 0.1961 and 0.2029
  GUS activity (hydrolysis rate of MUG): 1.095 and 1.138 and 1.1007
[2]; [25]
  1/v: 0.1529 and 0.1514 and 0.1472
  GUS activity (hydrolysis rate of MUG): 1.4607 and 1.475 and 1.517
[2]; [26]
  1/v: 0.09524 and 0.09338 and 0.09505
  GUS activity (hydrolysis rate of MUG): 2.344 and 2.391 and 2.349
[2]; [27]
  1/v: 0.06409 and 0.06318 and 0.06381
  GUS activity (hydrolysis rate of MUG): 3.484 and 3.534 and 3.499
[2]; [28]
  1/v: 0.286 and 0.2822 and 0.2849
  GUS activity (hydrolysis rate of MUG): 0.7809 and 0.7911 and 0.7837
[2]; [29]
  1/v: 0.2142 and 0.2187 and 0.2123
  GUS activity (hydrolysis rate of MUG): 1.043 and 1.021 and 1.052
[2]; [30]
  1/v: 0.1255 and 0.1264 and 0.1244
  GUS activity (hydrolysis rate of MUG): 1.779 and 1.767 and 1.7944
[2]; [31]
  1/v: 0.08292 and 0.0812 and 0.08265
  GUS activity (hydrolysis rate of MUG): 2.693 and 2.75 and 2.702

Reference: publication PMC7933434, “Entropy-driven binding of gut bacterial β-glucuronidase inhibitors ameliorates irinotecan-induced toxicity” (Communications Biology, 2021)
